Results reported in patent US20220226298A1, “GPR40 AGONISTS” (Kallyope, Inc., priority 2019, published 2022).

Biological target: T1, human GPR40 (Homo sapiens, UniProt O14842)
T1 construct: host or cells: CHO-K1
Experiment: Inositol phosphate accumulation assay (IP1 HTRF) in CHO-K1 cells expressing human GPR40
Assay type: cell-based
Conditions: 90 min stimulation
Procedure: CHO-KI cells expressing human GPR40 were purchased from DiscoverX (95-1005C2). HEK293 cells expressing mouse FFAR1 were prepared using a mouse FFAR1 carrying plasmid purchased from OriGene Technologies (MR222997). The cells were transfected using Lipofectamine 2000 using manufacturer instructions and stable cell line was established from a single cell using geneticine selection. Assay ready frozen (ARF) cells were prepared and used throughout the study.
The assay was performed in a 384-well plate format using IP1 assay kit from Cis-Bio. ARF cells expressing FFAR1 (mouse and human) were thawed, washed and then plated in the appropriate medium (F12 based medium for CHO hFFAR1 and DMEM based medium for HEK293 mFFAR1—both were supplemented with 10% FBS and penicillin/streptomycin). 20 μL of 3.5×10^5 cells/mL were plated on a Poly D-Lysine coated 384-well white plate. The cells were then incubated for 16 hr at 37° C./5% CO2. After 16 hr the medium was removed and 15 μL of stimulation buffer containing the test compounds was added to the cells. The plates were then incubated for 90 min at 37° C./5% CO2. 5 μL of detection buffer (prepared as described in the IP-one kit) was added to each well and the plates were incubated at RT for 1 hr.
[…] was measured using ClarioSTAR plate reader, calculating the ratio between emissions at 665 nm and 620 nm (HTRF ratio). HTRF ratio for positive (Max) and negative (Min) controls were used to normalize HTRF data and generate values for % activity. EC50 and Max activity values were determined using a standard 4-parameter fit.

T1 sequence (O14842 whole entry): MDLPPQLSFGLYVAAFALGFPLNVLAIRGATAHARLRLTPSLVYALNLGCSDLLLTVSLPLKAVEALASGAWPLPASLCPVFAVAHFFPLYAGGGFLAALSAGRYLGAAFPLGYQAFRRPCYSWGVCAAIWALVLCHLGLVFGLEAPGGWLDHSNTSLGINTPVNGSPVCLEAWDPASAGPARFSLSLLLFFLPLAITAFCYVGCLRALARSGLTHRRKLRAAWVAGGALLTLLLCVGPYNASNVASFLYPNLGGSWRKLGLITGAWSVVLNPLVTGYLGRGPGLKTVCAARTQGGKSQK

| SMILES | EC50 |
| --- | --- |
| O=C(O)C[C@H](c1cccc(OC(=O)c2ccc(-c3cc(O)ccc3F)cc2)c1)C1CC1 [Compound 2] | 10 to 100 nM |
| COc1cc(-c2ccc(C(=O)Oc3cccc([C@@H](CC(=O)O)C4CC4)c3)cc2)c(F)cn1 [Compound 3] | 10 to 100 nM |
| COc1ccc(F)c(-c2ccc(C(=O)Oc3cccc([C@@H](CC(=O)O)C4CC4)c3)c(C)c2)c1 [Compound 6] | 10 to 100 nM |
| COc1ccc(F)c(-c2cc(C(=O)Oc3cccc([C@@H](CC(=O)O)C4CC4)c3)on2)c1 [Compound 7, (S)-3-cyclopropyl-3-(3-((3-(2-fluoro-5-methoxyphenyl)isoxazole-5-carbonyl)oxy)phenyl)propanoic acid] | > 500 nM |
| CC(c1cc(C(F)(F)F)ccc1C(F)(F)F)N1CCC(C(=O)Oc2cccc([C@@H](CC(=O)O)C3CC3)c2)C1 (stereo partly drawn) [Compound 8, (3S)-3-(3-((1-(1-(2,5-bis(trifluoromethyl)phenyl)ethyl)pyrrolidine-3-carbonyl)oxy)phenyl)-3-cyclopropylpropanoic acid] | 10 to 100 nM |
| COc1cc(-c2ccc(C(=O)Oc3cccc([C@@H](CC(=O)O)C4CC4)c3)c(C)c2)c(F)cn1 [Compound 10, (S)-3-cyclopropyl-3-(3-((4-(5-fluoro-2-methoxypyridin-4-yl)-2-methylbenzoyl)oxy)phenyl)propanoic acid] | 100 to 500 nM |
| CCN(Cc1cc(-c2cc(OC)ncc2F)ccc1C(=O)Oc1cccc([C@@H](CC(=O)O)C2CC2)c1)C(C)C [Compound 13] | > 500 nM |
| COc1cc(-c2cc(F)c(C(=O)Oc3cccc([C@@H](CC(=O)O)C4CC4)c3)cc2CN(C(C)C)C(C)C)ccn1 [Compound 16, (S)-3-cyclopropyl-3-(3-((5-((diisopropylamino)methyl)-2-fluoro-4-(2-methoxypyridin-4-yl)benzoyl)oxy)phenyl)propanoic acid] | ≤ 10 nM |
| COc1cc(-c2cc(C)c(C(=O)Oc3cccc([C@@H](CC(=O)O)C4CC4)c3)cc2CN(C(C)C)C(C)C)c(F)cn1 [Compound 19] | 10 to 100 nM |
| CC(c1cc(C(F)(F)F)ccc1C(F)(F)F)N1CCN(C(=O)Oc2cccc([C@@H](CC(=O)O)C3CC3)c2)CC1 (stereo partly drawn) [Compound 20, (3S)-3-(3-((4-(1-(2,5-bis(trifluoromethyl)phenyl)ethyl)piperazine-1-carbonyl)oxy)phenyl)-3-cyclopropylpropanoic acid] | 10 to 100 nM |
| COc1cc(-c2cc(C)c(C(=O)Oc3cccc([C@H](C4CC4)[C@H](C)C(=O)O)c3)cc2CN(C(C)C)C(C)C)c(F)cn1 [Compound 21, (2S,3R)-3-cyclopropyl-3-(3-((5-((diisopropylamino)methyl)-4-(5-fluoro-2-methoxypyridin-4-yl)-2-methylbenzoyl)oxy)phenyl)-2-methylpropanoic acid] | ≤ 10 nM |
| CC(c1cc(C(F)(F)F)ccc1C(F)(F)F)N1CCC(C(=O)Oc2cccc([C@H](C3CC3)[C@H](C)C(=O)O)c2)CC1 (stereo partly drawn) [Compound 22, (2S,3R)-3-(3-((1-(1-(2,5-bis(trifluoromethyl)phenyl)ethyl)piperidine-4-carbonyl)oxy)phenyl)-3-cyclopropyl-2-methylpropanoic acid] | ≤ 10 nM |
| COc1cc(-c2cnc(C(=O)Oc3cccc([C@@H](CC(=O)O)C4CC4)c3)cn2)c(F)cn1 [Compound 23] | > 500 nM |
| COc1cc(-c2ccc(C(=O)Oc3cccc([C@H](C4CC4)[C@H](C)C(=O)O)c3)cc2)ccn1 [Compound 27] | ≤ 10 nM |
| COc1cc(-c2ccc(C(=O)Oc3cccc([C@H](C4CC4)[C@H](C)C(=O)O)c3)cc2CN(C(C)C)C(C)C)ccn1 [Compound 28] | ≤ 10 nM |
| COc1ccc(C(=O)N(CC(C)(C)C)c2cccc(C)n2)c(-c2ccc(C(=O)Oc3cccc([C@H](C4CC4)[C@H](C)C(=O)O)c3)c(C)c2)c1 [Compound 31, (2S,3R)-3-cyclopropyl-3-(3-((5′-methoxy-3-methyl-2′-((6-methylpyridin-2-yl)(neopentyl)carbamoyl)-[1,1′-biphenyl]-4-carbonyl)oxy)phenyl)-2-methylpropanoic acid] | ≤ 10 nM |
| COc1cc(-c2ccc(C(=O)Oc3cccc([C@H](C4CC4)[C@H](C)C(=O)O)c3)cc2CN2CCCC2(C)C)c(F)cn1 [Compound 32] | ≤ 10 nM |
| CCN(Cc1cc(C(=O)Oc2cccc([C@H](C3CC3)[C@H](C)C(=O)O)c2)ccc1-c1cc(OC)ncc1F)C(C)C [Compound 34, (2S,3R)-3-cyclopropyl-3-(3-((3-((ethyl(isopropyl)amino)methyl)-4-(5-fluoro-2-methoxypyridin-4-yl)benzoyl)oxy)phenyl)-2-methylpropanoic acid] | ≤ 10 nM |
| CCN(Cc1cc(C(=O)Oc2cccc([C@H](C3CC3)[C@@](C)(F)C(=O)O)c2)ccc1-c1cc(OC)ncc1F)C(C)C [Compound 37] | ≤ 10 nM |
| COc1ccc(F)c([C@H]2CC[C@H](C(=O)Oc3cccc([C@H](C4CC4)[C@H](C)C(=O)O)c3)CC2)c1 [Compound 40, (2S,3R)-3-cyclopropyl-3-(3-(((1r,4R)-4-(2-fluoro-5-methoxyphenyl)cyclohexanecarbonyl)oxy)phenyl)-2-methylpropanoic acid] | ≤ 10 nM |
| COc1ccc(F)c(-c2ccc(OC(=O)c3cccc([C@@H](CC(=O)O)C4CC4)c3)cc2)c1 [Compound 41] | 100 to 500 nM |

Continued, values first:

| EC50 | SMILES |
| --- | --- |
| > 500 nM | COc1cc(-c2cc(C)c(C(=O)Oc3cccc([C@H](CP(C)(=O)O)C4CC4)c3)cc2CN(C(C)C)C(C)C)c(F)cn1 (single isomer, unassigned) [Compound 71a] |
| > 500 nM | COc1cc(-c2cc(C)c(C(=O)Oc3cccc([C@@H](CP(C)(=O)O)C4CC4)c3)cc2CN(C(C)C)C(C)C)c(F)cn1 (single isomer, unassigned) [Compound 71b] |
| 10 to 100 nM | COc1ccc(F)c(-c2ccc(C(=O)Oc3cccc([C@@H](CC(=O)O)C4CC4)c3)cc2)c1 [Compound 1, (S)-3-cyclopropyl-3-(3-((2′-fluoro-5′-methoxy-[1,1′-biphenyl]-4-carbonyl)oxy)phenyl) propanoic acid] |
| > 500 nM | COc1ccc(F)c(-c2ccc(C(=O)Oc3cccc([C@@H](CC(=O)O)C4CC4)c3)nc2)c1 [Compound 4] |
| > 500 nM | COc1ccc(F)c(-c2nocc2C(=O)Oc2cccc([C@@H](CC(=O)O)C3CC3)c2)c1 [Compound 5, (3S)-3-cyclopropyl-3-[3-[3-(2-fluoro-5-methoxy-phenyl)isoxazole-4-carbonyl]oxyphenyl]propanoic acid] |
| 10 to 100 nM | CC(c1cc(C(F)(F)F)ccc1C(F)(F)F)N1CCC(C(=O)Oc2cccc([C@@H](CC(=O)O)C3CC3)c2)CC1 (stereo partly shown) [Compound 9] |
| 100 to 500 nM | CCN(Cc1cc(C(=O)Oc2cccc([C@@H](CC(=O)O)C3CC3)c2)c(C)cc1-c1cc(OC)ncc1F)C(C)C [Compound 11, (S)-3-cyclopropyl-3-(3-((5-((ethyl(isopropyl)amino)methyl)-4-(5-fluoro-2-methoxypyridin-4-yl)-2-methylbenzoyl)oxy)phenyl)propanoic acid] |
| 10 to 100 nM | CC(c1cc(C(F)(F)F)ccc1C(F)(F)F)N1CC(C)(C(=O)Oc2cccc([C@@H](CC(=O)O)C3CC3)c2)C1 (stereo partly shown) [Compound 12] |
| ≤ 10 nM | COc1cc(-c2ccc(C(=O)Oc3cccc([C@H](C4CC4)[C@H](C)C(=O)O)c3)c(C)c2)c(F)cn1 [Compound 14] |
| 100 to 500 nM | COc1cc(-c2ccc(C(=O)Oc3cccc([C@@H](CC(=O)O)C4CC4)c3)c(F)c2)ccn1 [Compound 17] |
| 100 to 500 nM | COc1cc(-c2cc(C)c(C(=O)Oc3cccc([C@@H](CC(=O)O)C4CC4)c3)c(F)c2)ccn1 [Compound 18] |
| ≤ 10 nM | COc1cc(-c2cc(F)c(C(=O)Oc3cccc([C@H](C4CC4)[C@H](C)C(=O)O)c3)cc2CN(C(C)C)C(C)C)ccn1 [Compound 24] |
| ≤ 10 nM | COc1cc(-c2ccc(C(=O)Oc3cccc([C@H](C4CC4)[C@H](C)C(=O)O)c3)cc2)c(F)cn1 [Compound 25] |
| ≤ 10 nM | COc1cc(-c2ccc(C(=O)Oc3cccc([C@H](C4CC4)[C@H](C)C(=O)O)c3)c(C)c2)ccn1 [Compound 29] |
| ≤ 10 nM | CCN(Cc1cc(C(=O)Oc2cccc([C@H](C3CC3)[C@H](C)C(=O)O)c2)ccc1-c1cc(OC)ccc1F)C(C)C [Compound 30] |
| ≤ 10 nM | COc1cc(-c2ccc(C(=O)Oc3cccc([C@H](C4CC4)[C@H](C)C(=O)O)c3)cc2CN2CCC(C)(C)C2)c(F)cn1 [Compound 33, (2S,3R)-3-cyclopropyl-3-[3-[3-[(3,3-dimethylpyrrolidin-1-yl)methyl]-4-(5-fluoro-2-methoxy-4-pyridyl)benzoyl]oxyphenyl]-2-methyl-propanoic acid] |
| > 500 nM | COc1cc(-c2ccc(C(=O)Oc3cccc([C@H](C4CC4)[C@H](C)C(=O)O)c3)cc2CN(C[C@H](O)[C@@H](O)[C@H](O)[C@H](O)CO)C(C)C)c(F)cn1 [Compound 35, (2S,3R)-3-cyclopropyl-3-(3-((4-(5-fluoro-2-methoxypyridin-4-yl)-3-((isopropyl((2S,3R,4R,5R)-2,3,4,5,6-pentahydroxyhexyl)amino)methyl)benzoyl)oxy)phenyl)-2-methylpropanoic acid] |
| ≤ 10 nM | CCN(Cc1cc(C(=O)Oc2cccc([C@H](C3CC3)[C@@](C)(F)C(=O)O)c2)ccc1-c1cc(OC)ccc1F)C(C)C [Compound 38] |
| ≤ 10 nM | COc1cc(-c2cc(F)c(C(=O)Oc3cccc([C@H](C4CC4)[C@@](C)(F)C(=O)O)c3)cc2CN(C(C)C)C(C)C)ccn1 [Compound 39] |
